Reference: publication PMC8779255, “Determining the Anticancer Activity of Sphingosine Kinase Inhibitors Containing Heteroatoms in Their Tail Structure” (Pharmaceutics, 2022)

How the values were obtained:
[1] = In vitro metabolic stability in liver microsomes
Procedure: Microsome incubation was measured in triplicate in a 1.5 mL Eppendorf tube with 0.1 M potassium phosphate buffer (pH 7.4). […] It has a final volume of 100 mL in the presence of an NADPH regeneration system. In the final incubation mixture, 0.5 mg/mL HLM, 0.1 M potassium phosphate buffer (pH 7.4), and NADPH regeneration system (1 mM NADPH, 10 mM MgCl2) were included. In the pre-incubation mixture, HLM was added, and the mixture was run in a shaking incubator at approximately 350 rpm and 37 °C for 5 min under a Thermomixer (Eppendorf, Hamburg, Germany). Reactions were initiated by the addition of 1 mM NADPH and then quenched by the addition of 40 μL of ice-cold acetonitrile containing 10 μM chlorpropamide (CPP) as an internal standard at 0 and 30 min. After quenching, centrifugation of the incubation mixture was performed at 15,000× g for 5 min at 4 °C. An aliquot of 2 µL of the supernatant was injected into the LC-MS/MS system. The LC-MS/MS system was Xcalibur version 1.1.1 (Thermo Fisher Scientific Inc., Waltham, MA, USA).

HT29 cells [2] = test: Clonogenic (colony formation) assay; format: cell-based, human; conditions: HT29, 5, 10 and 20 μM
Procedure: (§1) Cell proliferation was assayed by in vitro clonogenic assay. To perform the clonogenic assay, HT29 and HCT116 cells (1000 cells/well) were grown in 6-well plates for 24 h. Cells were treated with compound 10 and FTY720 in different concentrations for 12 h and changed fresh medium. Colonies were allowed to grow for two weeks by changing to a fresh medium every 3 days. Colonies were stained with 0.1% crystal violet prepared in 25% […] for 30 min and washed with running water and photographed with Canon Rebel T6i (Tokyo, Kanto, Japan). Colonies were counted using Image J software version 1.53i, National Institutes of Health, Bethesda, MD, USA). Plating efficiency (PE) and surviving fraction (SF) was calculated using the following formula. (1) [Plating efficiency (PE)]=Number of colony count in control/Number of cell seeded [Surviving Fraction]=Number of colony count /Number of cell seeded […]

HCT116 cells [3] = test: Clonogenic (colony formation) assay; format: cell-based, human; conditions: HCT116, 5, 10 and 20 μM
Procedure: as §1

HT29 cells [4] = test: Mitochondrial outer membrane potential (MOMP) by JC-10 staining; format: cell-based, human; conditions: HT29, 10 and 20 µM, 24 h, vs nontreated control
Procedure: (§2) To access the mechanism of cell death, mitochondrial outer membrane potential (MOMP) was measured using JC-10 cationic dye. HT29 and HCT116 cells (2.5 × 10^5 cells/well) were seeded in 12-well plates and treated with a test compound for 24 h, collected in 1.5 mL microtubes using trypsin-EDTA, washed with 1× cold PBS, and stained with JC-10 dye prepared in HBSS solution (0.14 M NaCl, 0.005 M KCl, 0.001 M CaCl2, 0.005 M MgSO4. 7H2O, 0.0004 M […], 0.0003 M Na2HPO4-2H2O, 0.0004 M KH2PO4, 0.006 M D-glucose, 0.004 M NaHCO3, 0.002 M HEPES, and 0.02% Pluronic® F-127) for 30 min. Samples were analyzed using MACSQuanta Analyzer 10. Cells with green and red fluorescence were plotted in a dot plot; the ratio of red to green fluorescence was calculated using MACSQuantify^TM version 2.8 software and presented as MOMP of the cells. The experiment was repeated three times (n = 6).

HCT116 cells [5] = test: as above; format: cell-based, human; conditions: HCT116, 10 and 20 µM, 24 h, vs nontreated control
Procedure: as §2

For `CCCCCCCOc1ccc(CCN2CCN(CCO)CC2)cc1` [Compound 10, 2-(4-(4-(Heptyloxy)phenethyl)piperazin-1-yl)ethanol], the “liver microsomal stability, Human (%)” value ([1]; % remaining after 30 min, 0.5 mg/mL microsomes, NADPH) was 70.3%, the “liver microsomal stability (in words)” value ([1]; human) was “stable” and the colony formation capacity (HT29 cells [2]) was “effectively inhibits the colony formation capacity”. For the same compound, the colony formation capacity (HCT116 cells [3]) was “effectively inhibits the colony formation capacity”, the “JC-10 dye red to green fluorescence ratio (MOMP)” value (HT29 cells [4]) was “significantly reduced” and the “JC-10 dye red to green fluorescence ratio (MOMP)” value (HCT116 cells [5]) was “significantly reduced”.
